In the NIST ThermoML archive (doi:10.1016/j.jct.2016.10.006):
Numbers after ± are expanded uncertainties.

Legend:
[1] = Crystal; DTA
[2] = Molar enthalpy of transition or fusion; conditions: Crystal; DSC

## Cn1cnc([N+](=O)[O-])c1Cl [5-chloro-1-methyl-4-nitroimidazole]
[1]
  Normal melting temperature: 148.20 ± 1.1 °C
[2]
  Molar enthalpy of transition or fusion: 22.4 ± 0.93 kJ/mol
